One assay has as its target T1, human α4β7 (Homo sapiens, UniProt P13612+P26010).
T1 construct: expressed in transfected cells
T1 sequence (P13612 34-1032): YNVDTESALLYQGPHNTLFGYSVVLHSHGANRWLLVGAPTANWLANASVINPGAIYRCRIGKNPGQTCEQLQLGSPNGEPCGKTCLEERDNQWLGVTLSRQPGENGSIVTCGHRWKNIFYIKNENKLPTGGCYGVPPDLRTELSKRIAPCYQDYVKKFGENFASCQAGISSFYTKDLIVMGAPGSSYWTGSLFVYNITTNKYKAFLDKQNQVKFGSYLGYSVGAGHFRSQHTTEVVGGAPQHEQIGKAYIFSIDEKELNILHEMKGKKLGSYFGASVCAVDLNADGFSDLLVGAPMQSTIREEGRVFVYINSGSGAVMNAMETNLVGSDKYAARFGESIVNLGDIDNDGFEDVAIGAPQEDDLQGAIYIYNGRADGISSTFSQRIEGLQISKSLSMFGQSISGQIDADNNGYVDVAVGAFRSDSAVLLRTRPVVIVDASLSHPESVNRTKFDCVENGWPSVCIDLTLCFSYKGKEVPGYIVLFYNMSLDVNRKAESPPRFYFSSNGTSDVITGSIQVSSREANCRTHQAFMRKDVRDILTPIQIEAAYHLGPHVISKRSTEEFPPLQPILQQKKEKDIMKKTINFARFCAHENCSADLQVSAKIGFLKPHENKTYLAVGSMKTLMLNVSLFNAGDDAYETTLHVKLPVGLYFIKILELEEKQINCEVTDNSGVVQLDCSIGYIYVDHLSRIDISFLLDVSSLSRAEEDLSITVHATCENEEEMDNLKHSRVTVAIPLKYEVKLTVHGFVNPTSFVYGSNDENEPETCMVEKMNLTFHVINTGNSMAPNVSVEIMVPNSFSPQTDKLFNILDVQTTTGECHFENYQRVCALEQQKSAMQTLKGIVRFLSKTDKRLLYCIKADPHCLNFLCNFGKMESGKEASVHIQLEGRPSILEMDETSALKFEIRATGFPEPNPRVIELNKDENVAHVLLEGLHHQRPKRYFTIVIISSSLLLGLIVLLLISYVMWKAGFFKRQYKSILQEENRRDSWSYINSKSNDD
T1 sequence (P26010 20-798): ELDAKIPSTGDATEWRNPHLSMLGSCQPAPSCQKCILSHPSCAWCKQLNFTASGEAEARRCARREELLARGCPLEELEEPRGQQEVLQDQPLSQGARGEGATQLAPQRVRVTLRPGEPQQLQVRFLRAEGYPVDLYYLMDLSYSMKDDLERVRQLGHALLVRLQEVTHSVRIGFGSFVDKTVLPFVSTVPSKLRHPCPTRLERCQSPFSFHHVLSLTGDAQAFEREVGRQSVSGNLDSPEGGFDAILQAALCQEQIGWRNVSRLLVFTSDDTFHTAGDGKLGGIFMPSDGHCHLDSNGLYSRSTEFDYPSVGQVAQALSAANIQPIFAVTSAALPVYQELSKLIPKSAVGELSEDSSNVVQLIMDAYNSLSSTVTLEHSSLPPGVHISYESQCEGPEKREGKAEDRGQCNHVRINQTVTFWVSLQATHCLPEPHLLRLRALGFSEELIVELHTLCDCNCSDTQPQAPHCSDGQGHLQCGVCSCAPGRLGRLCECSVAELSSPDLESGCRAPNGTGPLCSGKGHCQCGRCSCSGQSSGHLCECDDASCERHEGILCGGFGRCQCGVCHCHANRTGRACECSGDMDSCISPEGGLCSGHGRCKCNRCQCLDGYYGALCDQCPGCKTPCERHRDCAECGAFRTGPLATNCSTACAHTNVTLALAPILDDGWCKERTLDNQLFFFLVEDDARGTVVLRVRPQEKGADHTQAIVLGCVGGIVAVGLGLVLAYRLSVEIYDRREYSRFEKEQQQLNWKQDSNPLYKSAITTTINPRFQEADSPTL
The assay is described as follows: α4β7-K562 Cell Adhesion Assay (α4β7 Mediated Adhesion/VCAM-1). Format: cell-based. On the procedure: α4β7-K562 Cell Adhesion Assay (α4β7 Mediated Adhesion/VCAM-1)
(§1) Immulon 96 well plates (Dynex) were coated with 100 μL recombinant hVCAM-1 at 4.0 μg/mL in 0.05 M NaCO3 buffer pH 9.0 overnight at 4° C. (R&D Systems). Plates were washed 3 times in PBS with 1% BSA and blocked for 1 h @ room temperature in this buffer. PBS was removed and compounds to be tested (50 μL) were added at 2× concentration. A stable cell line of K562 cells expressing human α4β7, (50 μL at 2×10^6/mL) labeled with 5 μM Calcein AM (Molecular Probes) for 1 h at 37° C., were added to each well and allowed to adhere for 1 h at room temperature. Plates were washed 3× in PBS+1% BSA and cells were lysed for 15 minutes in 100 μL of 1 M Tris pH 8.0 with 1% SDS. The plate was read at 485 nm excitation and 530 nm emission.

The next assay addresses T2, α4β1 integrin receptor (Homo sapiens, UniProt P05556+P13612).
T2 construct: Ramos Cell Adhesion Assay (α4β1 Mediated Adhesion/VCAM-1); endogenous in cells; host or cells: Ramos cells
The assay is described as follows: Ramos Cell Adhesion Assay (α4β1 Mediated Adhesion/VCAM-1). Format: cell-based. On the procedure: Ramos Cell Adhesion Assay (α4β1 Mediated Adhesion/VCAM-1)
as §1, with “Ramos cells,” for “A stable cell line of K562 cells expressing human α4β7,”

Setting [1] is: Table IV, read-out: Inhibition of Binding of K562 Cells to Immobilized VCAM-1 IC50.
Where [2] appears, read: Table III, read-out: Inhibition of Binding of Ramos Cells to Immobilized VCAM-1 IC50.
Setting [3] is: Table I, racemic mixtures and resolved (S,S) and (R,S) diastereomers, read-out: Antagonist IC50 Activity α4β7.
Setting [4] is: Table I, racemic mixtures and resolved (S,S) and (R,S) diastereomers, read-out: Antagonist IC50 Activity α4β1.

Results on 13 compounds are retold here after US6960597B2, “Aza-bridged-bicyclic amino acid derivatives as α4 integrin antagonists” (Orth-McNeil Pharmaceutical, Inc., priority 2000, dated 2005).

Read-outs that look alike come from different tables or passages of the source.

T2 sequence (P05556 21-798, one chain of several): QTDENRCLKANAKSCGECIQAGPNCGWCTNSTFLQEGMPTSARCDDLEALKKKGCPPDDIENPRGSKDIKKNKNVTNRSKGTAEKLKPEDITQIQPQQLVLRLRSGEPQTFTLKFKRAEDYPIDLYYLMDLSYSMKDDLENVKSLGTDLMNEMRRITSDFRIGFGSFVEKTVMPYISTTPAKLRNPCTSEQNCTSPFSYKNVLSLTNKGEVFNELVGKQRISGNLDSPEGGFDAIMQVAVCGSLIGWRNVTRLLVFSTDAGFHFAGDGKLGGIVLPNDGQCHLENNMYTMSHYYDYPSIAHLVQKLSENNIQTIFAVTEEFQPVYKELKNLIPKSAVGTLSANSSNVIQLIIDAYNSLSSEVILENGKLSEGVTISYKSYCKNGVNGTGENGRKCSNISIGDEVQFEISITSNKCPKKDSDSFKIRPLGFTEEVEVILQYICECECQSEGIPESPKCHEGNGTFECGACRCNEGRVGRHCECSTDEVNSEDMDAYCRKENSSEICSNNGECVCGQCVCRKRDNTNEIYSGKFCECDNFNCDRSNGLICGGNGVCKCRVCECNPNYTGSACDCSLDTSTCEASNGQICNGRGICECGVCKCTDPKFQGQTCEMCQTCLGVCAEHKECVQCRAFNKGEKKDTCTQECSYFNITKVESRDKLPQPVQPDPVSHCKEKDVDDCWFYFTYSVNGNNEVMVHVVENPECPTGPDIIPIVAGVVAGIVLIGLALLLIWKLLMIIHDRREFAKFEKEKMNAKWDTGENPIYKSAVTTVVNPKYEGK

Take `Cc1ccc(S(=O)(=O)N2C3CCC(CC3)C2C(=O)N[C@@H](Cc2ccc(NC(=O)c3c(Cl)cccc3Cl)cc2)C(=O)O)cc1` (mixture of isomers) [Cpd 1, 4-[(2,6-dichlorobenzoyl)amino]-N-[[2-[(4-methylphenyl)sulfonyl]-2-azabicyclo[2.2.2]oct-3-yl]carbonyl]-L-phenylalanine]: the IC50 turned out to be 142 nM at human α4β7 (setting [1]) and 45 nM on α4β1 integrin receptor (setting [2]).

For the compound `O=C(Nc1ccc(C[C@H](NC(=O)C2C3CCC(CC3)N2S(=O)(=O)c2ccccc2)C(=O)O)cc1)c1c(Cl)cccc1Cl` (mixture of isomers) [Cpd 6, 4-[(2,6-dichlorobenzoyl)amino]-N-[[2-(phenylsulfonyl)-2-azabicyclo[2.2.2]oct-3-yl]carbonyl]-L-phenylalanine], the IC50 at human α4β7 (setting [3]) was 283 nM; on α4β1 integrin receptor (setting [4]), 20 nM; on α4β1 integrin receptor (setting [2]), 25 nM.

Consider `COc1cccc(OC)c1-c1ccc(C[C@H](NC(=O)C2C3CCC(CC3)N2S(=O)(=O)c2ccc(C)cc2)C(=O)O)cc1` (mixture of isomers) [Cpd 18, 4-(2,6-dimethoxyphenyl)-N-[[2-[(4-methylphenyl)sulfonyl]-2-azabicyclo[2.2.2]oct-3-yl]carbonyl]-L-phenylalanine], for which the IC50 at human α4β7 (setting [3]) came out at 210 nM; on α4β1 integrin receptor (setting [4]) it was 124 nM; on α4β1 integrin receptor (setting [2]) it was 124 nM.

For the compound `O=C(N[C@@H](Cc1ccc(N2C(=O)c3ccccc3C2=O)cc1)C(=O)O)C1C2CCC(CC2)N1S(=O)(=O)c1ccccc1` (mixture of isomers) [Cpd 47, 4-(1,3-dihydro-1,3-dioxo-2H-isoindol-2-yl)-N-[[2-(phenylsulfonyl)-2-azabicyclo[2.2.2]oct-3-yl]carbonyl]-L-phenylalanine], the IC50 turned out to be 83 nM on human α4β7 (setting [3]), 74 nM at α4β1 integrin receptor (setting [4]) and 74 nM at α4β1 integrin receptor (setting [2]).

Consider `CN(C)C(=O)Oc1ccc(C[C@H](NC(=O)C2C3CCC(CC3)N2S(=O)(=O)c2ccccc2)C(=O)O)cc1` (mixture of isomers) [Cpd 52, O-[(dimethylamino)carbonyl]-N-[[2-(phenylsulfonyl)-2-azabicyclo[2.2.2]oct-3-yl]carbonyl]-L-tyrosine], for which the IC50 at human α4β7 amounted to 998 nM; at α4β1 integrin receptor (Antagonist IC50 Activity α4β1, Table I, racemic mixtures and resolved (S,S) and (R,S) diastereomers) it was 124 nM; at α4β1 integrin receptor (Inhibition of Binding of Ramos Cells to Immobilized VCAM-1 IC50, Table III) it was 124 nM.

Turning to `CC(C)(C)OC(=O)N1CCC(C(=O)Nc2ccc(C[C@H](NC(=O)C3C4CCC(CC4)N3S(=O)(=O)c3ccccc3)C(=O)O)cc2)CC1` (mixture of isomers) [Cpd 53, 4-[[[1-[(1,1-dimethylethoxy)carbonyl]-4-piperidinyl]carbonyl]amino]-N-[[2-(phenylsulfonyl)-2-azabicyclo[2.2.2]oct-3-yl]carbonyl]-L-phenylalanine], the half-inhibitory concentration (IC50) on human α4β7 (setting [3]) was found to be 871 nM; on α4β1 integrin receptor (setting [4]), 179 nM; on α4β1 integrin receptor (setting [2]), 67 nM.

On to `O=C(Nc1ccc(C[C@H](NC(=O)C2C3CCC(CC3)N2S(=O)(=O)c2cccs2)C(=O)O)cc1)c1c(Cl)cncc1Cl` (mixture of isomers) [Cpd 71, 4-[[(3,5-dichloro-4-pyridinyl)carbonyl]amino]-N-[[2-(2-thienylsulfonyl)-2-azabicyclo[2.2.2]oct-3-yl]carbonyl]-L-phenylalanine], for which the IC50 on human α4β7 (setting [3]) is 30 nM; on α4β1 integrin receptor (setting [4]) it was 9 nM; at α4β1 integrin receptor (setting [2]) it was 7 nM.

For the compound `Cc1ccc(S(=O)(=O)N2C3CCC(CC3)C2C(=O)N[C@@H](Cc2ccc(NC(=O)c3c(Cl)cc(Cl)cc3Cl)cc2)C(=O)O)cc1` (stereo partly drawn) [Cpd 2, 4-[(2,4,6-trichlorobenzoyl)amino]-N-[[2-[(4-methylphenyl)sulfonyl]-2-azabicyclo[2.2.2]oct-3-yl]carbonyl]-L-phenylalanine], the IC50 on human α4β7 (setting [1]) turned out to be 98 nM; on α4β1 integrin receptor (setting [2]), 51 nM.

With `COc1cccc(OC)c1C(=O)Nc1ccc(C[C@H](NC(=O)C2C3CCC(CC3)N2S(=O)(=O)c2ccc(C)cc2)C(=O)O)cc1` (stereo partly drawn) [Cpd 3, 4-[(2,6-dimethoxybenzoyl)amino]-N-[[2-[(4-methylphenyl)sulfonyl]-2-azabicyclo[2.2.2]oct-3-yl]carbonyl]-L-phenylalanine], the IC50 on human α4β7 (setting [1]) was determined as 1940 nM; on α4β1 integrin receptor (setting [2]), 50 nM.

Take `O=C(Nc1ccc(C[C@H](NC(=O)[C@@H]2C3CCC(C3)N2S(=O)(=O)c2ccccc2)C(=O)O)cc1)c1c(F)cccc1F` (stereo partly drawn) [Cpd 5a, 4-[(2,6-difluorobenzoyl)amino]-N-[[(3S)-2-(phenylsulfonyl)-2-azabicyclo[2.2.1]hept-3-yl]carbonyl]-L-phenylalanine]: the IC50 at human α4β7 (setting [3]) turned out to be 62 nM; on α4β1 integrin receptor (setting [4]), 81 nM; at α4β1 integrin receptor (setting [2]), 81 nM.

For the compound `O=C(Nc1ccc(C[C@H](NC(=O)C2C3CCC(CC3)N2S(=O)(=O)c2ccccc2)C(=O)O)cc1)c1c(F)c(F)cc(F)c1F` (stereo partly drawn) [Cpd 44, 4-[(2,3,5,6-tetrafluorobenzoyl)amino]-N-[[2-(phenylsulfonyl)-2-azabicyclo[2.2.2]oct-3-yl]carbonyl]-L-phenylalanine], the IC50 at α4β1 integrin receptor (setting [2]) stood at 309 nM.

In the case of `O=C(Nc1ccc(C[C@H](NC(=O)[C@@H]2C3CCC(CC3)N2S(=O)(=O)c2ccccc2)C(=O)O)cc1)c1c(Cl)cncc1Cl` [Cpd 60, 4-[[(3,5-dichloro-4-pyridinyl)carbonyl]amino]-N-[[(3S)-2-(phenylsulfonyl)-2-azabicyclo[2.2.2]oct-3-yl]carbonyl]-L-phenylalanine], the IC50 on α4β1 integrin receptor (setting [2]) is 9 nM.

Consider `CN(C)C(=O)Nc1ccc(C[C@H](NC(=O)C2C3CCC(CC3)N2S(=O)(=O)c2ccccc2)C(=O)O)cc1` (stereo partly drawn) [Cpd 61, 4-[[(dimethylamino)carbonyl]amino]-N-[[2-(phenylsulfonyl)-2-azabicyclo[2.2.2]oct-3-yl]carbonyl]-L-phenylalanine], for which the IC50 at α4β1 integrin receptor (setting [2]) is 56 nM.

In general, IC50 refers to the concentration needed to halve the response being measured.
